Data as given in EP0846119B1, “THIENOPYRIMIDINE DERIVATIVES, THEIR PRODUCTION AND USE AS ENDOTHELIN ANTAGONISTS” (Takeda Chemical Industries, Ltd., priority 1995, dated 1997).
Where two headings read alike, the source gives them in different places.

Columns and labels:
[1] = biological target: T1, human ETB endothelin receptor (Homo sapiens, UniProt P24530); test: Binding Test to ETB receptor expressed in CHO cell (ET-1-stimulated [3H]arachidonic acid release); assay type: cell-based; conditions: CHO cell expressing human ETB (ETB 12 cells), final concentration of ET-1 6.3x10^-10M, n=2
T1 construct: expressed in transfected cells; host or cells: CHO cells (clone ETB 12)
T1 sequence (P24530 27-442): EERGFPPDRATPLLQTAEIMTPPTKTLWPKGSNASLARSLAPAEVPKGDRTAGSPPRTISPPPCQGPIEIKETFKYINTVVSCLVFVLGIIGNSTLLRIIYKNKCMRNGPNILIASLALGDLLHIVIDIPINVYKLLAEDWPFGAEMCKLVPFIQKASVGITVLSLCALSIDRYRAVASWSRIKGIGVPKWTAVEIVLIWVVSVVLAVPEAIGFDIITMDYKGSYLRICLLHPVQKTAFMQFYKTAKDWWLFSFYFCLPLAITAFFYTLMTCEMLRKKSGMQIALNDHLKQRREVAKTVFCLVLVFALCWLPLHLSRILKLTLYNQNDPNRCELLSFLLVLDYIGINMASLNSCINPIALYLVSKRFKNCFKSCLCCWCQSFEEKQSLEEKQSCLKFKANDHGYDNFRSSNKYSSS
Experimental: Binding Test to ETB receptor expressed in CHO cell:
cells: CHO cell expressing human ETB endothelin receptor, i.e. ETB 12 cells medium: DMEM 10% FCS Gln, nonessential amino acids, penicillin, streptomycin
Cells were seeded in 12 wells of 24 well plates at a density of 2x10^5 cells/well (1 ml medium/well). On the next day, [^3H]arachidonic acid was added to each well to be 250 nCi(nanocurie)/ml. On the next day, the medium was sucked from the wells by the use of an aspirator to remove free arachidonic acid and floating cells, and then 0.5 ml of medium was added. This procedure was repeated agian. After allowing to stand for 30minutes in a CO2 incubator, the medium was exchanged rapidly.
The sample of compound obtained in Example 5 or compound 16 of Example 11 was stepwise diluted with a buffer solution for dilution, containing 3.15x10^-8M endothelin-1 (ET-1) {20 mM Tris, 5mM Mg(AcO)2, 2 mM EGTA, 0.03% NaN3, 0.1% BSA, 0.05% CHAPS}. 10 µl of the solution was added to each well (final concentration of ET-1: 6.3x10^-10M). […] After allowing to-stand for 30 minutes in the CO2 incubator, the medium was completely collected and the radio activity of [^3H]arachidonic acid released in the medium was measured by a liquid scintillation counter. IC50 values were calculated by Hill Plot from the concentration and relative reaction value of each sample.

[2] = test system: coronary artery where ETA is expressed; test: Inhibition Test on coronary artery where ETA is expressed (ET-1-induced constriction of ring samples); conditions: porcine coronary artery ring, pre-treatment 30 minutes, relative to vehicle group
Experimental: Inhibition Test on coronary artery where ETA is expressed:
3-mm ring samples for vehicle group and drug-treating group were prepared by removing fat and connective tissue from coronary artery enucleated from porcine heart and obtained from the adjacent portions thereof. The samples, hanging in Magnus tube filled with Krebs solution, were stabilized for 90 minutes under 2 g of static tension. After subjecting the samples to constriction for 10 minutes by potassium chloride (KCl) (60 mM) to obtain the maximum reaction, the samples were then washed and stabilized for 60 minutes. […]
(§1) The constriction efficiency (% KCl) of ET-1 was calculated as a relative value to KCl constriction of each sample which was regarded as 100%. Further, the inhibiting efficiency was calculated from the constriction efficiency of the drug-treating group calculated as a relative value to the constriction of the vehicle group which was regarded as 100%.

[3] = test system: coronary vein where ETB is expressed; test: Inhibition Test on coronary vein where ETB is expressed (S6c-induced constriction of ring samples); conditions: Sus scrofa, porcine coronary vein ring, pre-treatment 30 minutes, relative to vehicle group, read-out: % inhibition (MEAN ± S.E.M.) (n=) vein (S6c 1 nM); for inhibition at 0.1 µM: compound 0.1 µM; for inhibition at 10 µM: compound 10 µM
Experimental: Inhibition Test on coronary vein where ETB is expressed:
3-mm ring samples for vehicle group and drug-treating group were prepared by removing fat and connective tissue from coronary vein enucleated from porcine heart and obtained from the adjacent portions thereof. The samples, hanging in Magnus tube filled with Krebs solution, were stabilized for 90 minutes under 0.5 g static tension. After subjecting the samples to constriction for 10 minutes by potassium chloride (KCl) (60 mM) to obtain the maximum reaction, the samples were washed and stabilized for 60 minutes. After pre-treating compound obtained in Example 5 or Compound 16 of Example 11 or vehicle (H2O) for 30 minutes, S6c (1 nM) (S6c: sarafotoxin S6c, peptide type snake toxin consisting of 21 amino acids, it is useful for the selective agonist to ETB receptor owing to the similarity of its structure to endothelin) was added to observe the maximum constriction.
as §1, with “S6c” for “ET-1”

[4] = biological target: T2, human endothelin-B (ETB) receptors (Homo sapiens, UniProt P24530); test: Binding Test to ETB receptor expressed in an insect cell Sf9 ([125I]endothelin-1 displacement)
T2 construct: made in house; host or cells: Sf9 insect cells (membrane fractions)
T2 sequence (P24530 27-442): T1 sequence (P24530 27-442)
Experimental: Binding Test to ETB receptor expressed in an insect cell Sf9:
Endothelin (ET) receptors were prepared by diluting fractions of insect cell (Sf9) membrane having human endothelin-B (ETB) receptors expressed, with an assay buffer {200 mM Tris-HCl, 2 mM EGTA (ethylenegiycol bis(2-aminoethylether) tetra acetic acid), 5 mM magnesium acetate, 0.1% BSA (bovine serum albumin), 0.03% NaN3, 0.5 mM PMSF(phenyl methyl sulfonyl fluoride), 20 µg/ml leupeptin, 4 µg/ml E-64 (products of the Peptide Institute), 1 µg/ml pepstatin, (pH 7.2)} respectively in a concentration of 1.4 µg/ml in the former case and 0.7 µg/ml in the latter case.
To 100 µl of each portion was added 5 nM[^125I] endothelin-1 (2 µl). A dimethylsulfoxide solution (3 µl) of the sample was added thereto and incubated at 25°C fpr 60 minutes.
And, to determine the maximum binding amount (B0) and non-specific binding amount (NSB), lots to which a dimethyl sulfoxide solution (3 µl) or a dimethyl sulfoxide solution (3 µl) containing endothelin-1 (10^-5M) had been added, were also incubated.
These lots were supplemented with 0.05% CHAPS(3-[(3-chloroamidopropyl)dimethylammonio]-1-propanesulfonate)-assay buffer (1.5 ml), subjected to filtration through a glass fiber filter GF/F (trade name; product of Whatman Ltd. (England)), and then washed with the same buffer (1.5 ml).
Radioactivity on the filter was counted in a gamma-counter to determine the Percent Maximum Binding (PMB) in accordance with the aforesaid calculation formula. The concentration causing PMB=50% was determined as IC50 value.

[5] = Sf9 membrane fractions, [125I]endothelin-1, 25°C, 60 minutes, concentration causing PMB=50%, read-out: IC50 value: µM Human endotherin-B receptor
[6] = Table 6, values recur in Table 8, read-out: Binding IC50 (µM) ETB

SMILES: CCS(=O)(=O)NCc1c(-c2ccc(OCOC)cc2)sc2c1c(=O)n(CC(=O)O)c(=O)n2Cc1ccccc1SC [11(16), 2,4(1H,3H)-Dioxo-6-(4-methoxymethoxyphenyl)-1-(2-methylthiobenzyl)-5-(ethanesulfonamidomethyl)thieno[2,3-d]pyrimidine-3-acetic acid]
- IC50 [1]: 130 nM
- % inhibition (MEAN ± S.E.M.) (n=) artery (ET-1 3nM) ([2]; compound 1 µM): 33.1 ± 8.6 (4) %
- inhibition at 0.1 µM [3]: 53.3 ± 4.4%
- inhibition at 10 µM [3]: 98 ± 1.1%
- IC50 [4, 5]: 0.054 µM
- IC50 [4, 6]: 0.054 µM

SMILES: COCOc1ccc(-c2sc3c(c2CNS(C)(=O)=O)c(=O)n(CC(=O)O)c(=O)n3Cc2ccccc2SC)cc1 [Example 5, 2,4(1H,3H)-dioxo-6-(4-methoxymethoxyphenyl)-1-(2-methylthiobenzyl)-5-(methanesulfonamidomethyl)thieno[2,3-d]pyrimidine-3-aretic acid]
- IC50 [1]: 490 nM
- % inhibition (MEAN ± S.E.M.) (n=) artery (ET-1 3nM) ([2]; compound 0.1 µM): 7.6 ± 37.3 (3) %
- % inhibition (MEAN ± S.E.M.) (n=) artery (ET-1 3nM) ([2]; compound 1 µM): 78.1 ± 11.9 (4) %
- inhibition at 0.1 µM [3]: 73.4 ± 3.1%
- inhibition at 10 µM [3]: 100%
- IC50 [4, 5]: 0.2 µM
- IC50 [4, 6]: 0.1 µM
